# Measurements as given in US20100261710A1, “HDAC Inhibitors” (ARQULE, INC., priority 2007, published 2010).
# pIC50: −log10 of the molar value.
# Tests used:
# HDAC1 = biological target: T1, HDAC1 (Homo sapiens, UniProt Q13547); experiment: HDAC-1 immunocapture fluorescent biochemical assay (HeLa lysate); conditions: HDAC1 immunocaptured from HeLa extract
# T1 construct: cell extract containing HDAC (HeLa in these experiments); endogenous in cells; host or cells: HeLa cell extract
# Description: The HDAC-1 assay represents a novel immunocapture assay procedure. […] The HDAC1 is captured on a protein A coated plate using HDAC1 specific antibody, and is then allowed to react with the substrate.
# This assay in performed in four general steps. In the first step (FIG. 1A), cell extract containing HDAC (HeLa in these experiments) is incubated with (cell signaling) rabbit polyclonal HDAC1 antibody (rabbit IgG antibody is used for background control) to allow binding of the enzyme to the antibody. In the second step, the complexed mixture is added to the protein A covered plate which captures the antibody. In the third step, after washing away unbound proteins, substrate and inhibitor are added and deacetylation is allowed to occur. […] The plate is then read on either Victor or Perkin Elmer Envision system using Umbilliferone filter set.
# • A. HeLa extract complexed with HDAC1 antibody working solution (in DPBS):
# Compound working solution (in HDAC buffer):
# Compounds diluted in assay buffer at 2× Screening concentration. • D. Activator solution:
# Trypsin (10 mg/mL) diluted 1:1600 in assay buffer containing 4 μM TSA.
# Complexing of extract with antibody was carried out at room temperature for 60 min with rocking. Binding of complexes onto protein A plate was carried out at room temperature for 60 min in 50 μL. Reaction was carried out in […], in the protein A plate for 60 minutes at 37° C. 40 μL of the reaction was moved into white ½ area plate for activation and reading.
# • 1. Set PIERCE Protein A plate to block with 150 μof 5% BSA in TB ST for 60 min at room temperature. • 2. […] Dilute complexes further ([…]) by addition of 3.5 mL of PBS (final total volume of 5 mL). • 4. Wash blocked protein A plate prior to complex addition with TBST. • 5. Add 50 μl of diluted complexes to Protein A plate and incubate for 60 min at room temperature. • 6. Wash plate with TB ST. • 7. Add 25 μl of diluted compounds (in HDAC buffer) to each well and incubate for 10 min at room temperature. • 8. […] Move 40 μl of reaction to a white plate and add 20 μl of activator/developer solution, mix thoroughly. • 10. Read plate.
# HCT-116 cells = experiment: MTS cell viability assay, HCT-116; assay type: cell-based; conditions: Homo sapiens, HCT-116, 72 h, read-out: HCT-116, IG50, MTS (uM)
# Description: (§1) The MTS cell viability assay was used to determine the potency of proliferation inhibitor with. MTS measures mitochondrial dehydrogenase activity and serves as surrogate readout for the number of viable cells.
# (§2) For MTS assay, cells were plated in 96-well plates at 2000 cells per well and incubated in the presence of compounds for 72 hr. MTS was added to each well as instructed by manufacture (Promega) and plates were incubated for 4 h at 37° C. The absorbance of each well was measured at 490 nm using a microplate reader.
# [1] = tested on: HDACs (nuclear HeLa extract); experiment: pan-HDAC fluorescent biochemical assay with nuclear HeLa extract; conditions: HDAC peptide substrate, 60 min at 37° C.
# Description: Substrate was synthesized in house. Stocks were prepared in DMSO (10 mM).
# Compound working solution: Compounds dissolved in assay buffer at 4× Screening concentration. Activator solution: Trypsin (10 mg/mL) diluted 1:1600 in Assay Buffer containing 4 μM TSA.
# Total reaction Volume: 40 μL
# Reaction was allowed to run for 60 minutes at 37° C.
# 2. Combine in a white ½ area well plate: 10 μl of 4× compound (or buffer), 15 μl of substrate and 15 μl of HeLa extract. Mix well
# 3. Incubate at 37° C. for 60 min.
# 4. Prepare Activator solution. Dilute Trypsin 1:1600 in Assay Buffer+4μM TSA. 20 μl is needed per assay point.
# 5. Add 20 μl of prepared activator solution and mix thoroughly.
# The hydroxamic-acid based compounds of the present invention were tested in the biochemical assay for their pan-HDAC inhibitory activity.
# HDAC3 = biological target: T2, HDAC3 (Homo sapiens, UniProt O15379); experiment: HDAC isoform assay, HDAC3; assay type: biochemical; conditions: substrate KI-177; read-out: HDAC3, IC50, ELISA (KI-177)
# T2 construct: purchased BioMol
# T2 sequence (O15379 whole entry, canonical isoform): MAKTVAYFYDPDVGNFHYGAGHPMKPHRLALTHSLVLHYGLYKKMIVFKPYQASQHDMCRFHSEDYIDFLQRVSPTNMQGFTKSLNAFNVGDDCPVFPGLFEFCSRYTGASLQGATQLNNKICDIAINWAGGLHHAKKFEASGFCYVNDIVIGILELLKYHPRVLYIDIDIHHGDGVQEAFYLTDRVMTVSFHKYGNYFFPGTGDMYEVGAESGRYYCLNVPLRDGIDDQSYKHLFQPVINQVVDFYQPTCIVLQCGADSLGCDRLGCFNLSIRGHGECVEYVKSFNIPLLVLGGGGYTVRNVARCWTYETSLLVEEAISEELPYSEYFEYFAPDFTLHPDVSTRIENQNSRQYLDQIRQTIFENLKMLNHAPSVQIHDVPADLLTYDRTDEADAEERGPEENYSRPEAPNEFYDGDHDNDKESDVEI
# T2 sequence (O75376 395-489 partner limits assumed): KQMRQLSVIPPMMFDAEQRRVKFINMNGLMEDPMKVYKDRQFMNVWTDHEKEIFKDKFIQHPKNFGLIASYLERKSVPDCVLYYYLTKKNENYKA
# Description: The assay measures the ability of a small molecule to inhibit deacetylation of the substrate. Activator reagent recognizes the substrate only if the lysine has been deacetylated.
# This homogeneous assay in performed in the same well without washing steps. The HDAC source, nuclear HeLa extract, is incubated with substrate in the presence of an inhibitor compound. At the end of the reaction time, activator solution, containing Trypsin and TSA, is added to stop the deacetylation reaction, and cleave the amino-coumarin from the deacetylated substrate. The plate is then read on either a Perkin Elmer Victor or Envision system using Umbilliferone filter set. […] The signal is directly proportional to the activity of HDACs and compound inhibition of HDAC is monitored by a decrease in signal.
# HDAC5 = HDAC5 (Homo sapiens, UniProt Q9UQL6); experiment: HDAC isoform assay, HDAC5
# HDAC5, sequence (Q9UQL6 whole entry, canonical isoform): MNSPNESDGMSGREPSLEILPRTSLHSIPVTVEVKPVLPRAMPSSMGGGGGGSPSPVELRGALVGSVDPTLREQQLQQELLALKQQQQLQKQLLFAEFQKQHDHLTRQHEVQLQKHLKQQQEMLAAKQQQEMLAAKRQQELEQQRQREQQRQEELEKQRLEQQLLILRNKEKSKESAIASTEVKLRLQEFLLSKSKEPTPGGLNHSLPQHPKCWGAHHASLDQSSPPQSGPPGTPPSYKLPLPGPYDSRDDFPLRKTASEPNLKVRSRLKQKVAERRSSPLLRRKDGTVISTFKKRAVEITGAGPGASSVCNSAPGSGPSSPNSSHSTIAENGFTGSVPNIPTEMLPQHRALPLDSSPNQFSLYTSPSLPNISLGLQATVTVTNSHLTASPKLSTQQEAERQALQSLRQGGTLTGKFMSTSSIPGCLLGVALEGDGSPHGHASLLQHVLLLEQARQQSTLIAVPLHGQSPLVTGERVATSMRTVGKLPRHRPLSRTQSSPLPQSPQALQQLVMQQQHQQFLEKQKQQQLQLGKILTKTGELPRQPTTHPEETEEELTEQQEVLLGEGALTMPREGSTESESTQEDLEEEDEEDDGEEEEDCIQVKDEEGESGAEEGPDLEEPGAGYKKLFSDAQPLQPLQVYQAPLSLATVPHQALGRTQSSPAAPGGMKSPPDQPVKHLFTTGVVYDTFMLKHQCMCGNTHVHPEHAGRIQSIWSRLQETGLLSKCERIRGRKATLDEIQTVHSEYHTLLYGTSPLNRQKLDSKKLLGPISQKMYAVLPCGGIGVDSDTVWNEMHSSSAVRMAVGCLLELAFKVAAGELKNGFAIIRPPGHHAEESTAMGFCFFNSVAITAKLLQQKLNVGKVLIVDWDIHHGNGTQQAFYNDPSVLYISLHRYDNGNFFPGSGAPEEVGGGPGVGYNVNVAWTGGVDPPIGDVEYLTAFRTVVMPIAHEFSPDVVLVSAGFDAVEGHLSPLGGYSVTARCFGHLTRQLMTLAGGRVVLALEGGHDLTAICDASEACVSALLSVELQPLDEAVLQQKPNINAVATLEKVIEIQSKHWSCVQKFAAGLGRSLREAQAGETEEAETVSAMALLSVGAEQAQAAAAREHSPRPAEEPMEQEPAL
# HDAC6 = biological target: T3, HDAC6 (Homo sapiens, UniProt Q9UBN7); experiment: HDAC isoform assay, HDAC6
# T3 sequence (Q9UBN7 1-1215): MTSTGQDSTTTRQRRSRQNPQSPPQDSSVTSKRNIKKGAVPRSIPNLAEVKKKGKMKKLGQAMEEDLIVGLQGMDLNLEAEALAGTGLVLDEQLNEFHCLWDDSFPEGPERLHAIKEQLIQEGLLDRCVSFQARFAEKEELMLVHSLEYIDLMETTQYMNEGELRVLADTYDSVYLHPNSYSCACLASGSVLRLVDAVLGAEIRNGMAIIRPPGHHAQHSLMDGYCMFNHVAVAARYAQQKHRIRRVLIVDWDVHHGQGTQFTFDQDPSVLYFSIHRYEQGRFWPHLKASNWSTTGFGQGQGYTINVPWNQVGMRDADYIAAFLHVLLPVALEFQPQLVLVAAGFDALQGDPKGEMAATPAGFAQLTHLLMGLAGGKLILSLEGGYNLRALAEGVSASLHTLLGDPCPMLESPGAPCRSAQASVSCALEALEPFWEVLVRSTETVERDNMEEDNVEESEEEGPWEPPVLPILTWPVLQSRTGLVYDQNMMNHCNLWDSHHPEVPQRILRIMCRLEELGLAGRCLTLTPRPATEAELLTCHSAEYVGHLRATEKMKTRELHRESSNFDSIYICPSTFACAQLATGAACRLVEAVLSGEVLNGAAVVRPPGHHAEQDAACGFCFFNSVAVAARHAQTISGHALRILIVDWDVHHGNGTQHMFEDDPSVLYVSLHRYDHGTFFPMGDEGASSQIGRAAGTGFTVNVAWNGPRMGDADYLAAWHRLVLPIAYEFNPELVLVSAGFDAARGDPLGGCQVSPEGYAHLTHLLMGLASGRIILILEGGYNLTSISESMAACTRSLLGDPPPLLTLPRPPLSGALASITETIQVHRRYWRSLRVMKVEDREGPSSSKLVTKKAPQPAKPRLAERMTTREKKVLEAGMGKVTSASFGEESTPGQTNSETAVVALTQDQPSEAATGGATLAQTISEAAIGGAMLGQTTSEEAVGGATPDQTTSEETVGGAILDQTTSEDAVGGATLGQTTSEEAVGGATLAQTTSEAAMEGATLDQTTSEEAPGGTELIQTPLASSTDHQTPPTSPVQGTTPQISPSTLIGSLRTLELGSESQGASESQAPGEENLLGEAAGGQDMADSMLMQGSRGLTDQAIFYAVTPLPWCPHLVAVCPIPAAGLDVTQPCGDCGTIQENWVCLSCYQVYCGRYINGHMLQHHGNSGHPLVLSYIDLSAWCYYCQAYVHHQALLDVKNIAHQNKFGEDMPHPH
# MJ cells = experiment: MTS cell viability assay, MJ; assay type: cell-based; conditions: 72 hr, read-out: MJ, IG50, MTS
# Description: as §1, §2
# HDAC2 = biological target: T4, HDAC2 (Homo sapiens, UniProt Q92769); experiment: HDAC isoform assay, HDAC2; assay type: biochemical; conditions: substrate KI-177; read-out: HDAC2, IC50, ELISA (KI-177)
# T4 construct: purchased BioMol
# T4 sequence (Q92769 whole entry, canonical isoform): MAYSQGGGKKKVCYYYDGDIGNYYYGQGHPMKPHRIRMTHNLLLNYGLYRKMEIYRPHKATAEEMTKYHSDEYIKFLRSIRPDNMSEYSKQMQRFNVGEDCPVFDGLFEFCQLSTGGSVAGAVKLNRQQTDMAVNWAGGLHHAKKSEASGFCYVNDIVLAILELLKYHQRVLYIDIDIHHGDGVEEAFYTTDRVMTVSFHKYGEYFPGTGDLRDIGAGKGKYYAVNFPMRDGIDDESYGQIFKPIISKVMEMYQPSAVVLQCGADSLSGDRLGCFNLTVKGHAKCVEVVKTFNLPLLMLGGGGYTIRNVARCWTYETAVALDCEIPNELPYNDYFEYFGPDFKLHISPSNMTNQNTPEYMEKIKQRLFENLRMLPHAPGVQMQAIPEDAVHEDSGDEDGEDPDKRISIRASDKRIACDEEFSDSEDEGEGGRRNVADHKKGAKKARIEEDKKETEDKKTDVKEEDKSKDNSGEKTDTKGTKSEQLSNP
# HH cells = experiment: MTS cell viability assay, HH; assay type: cell-based; conditions: Homo sapiens, 72 hr, read-out: HH, IG50, MTS
# Description: The MTS cell viability assay was used to determine the potency of proliferation inhibitor with. MTS measures mitochondrial dehydrogenase activity and serves as surrogate readout for the number of viable cells. The protocol described below is based upon the “CellTiter 96 Aqueous Non-Radioactive Cell Proliferation Assay” sold by Promega (Technical Bulletin No. 169).
# as §2
# HDAC4 = biological target: T5, HDAC4 (Homo sapiens, UniProt P56524); experiment: HDAC isoform assay, HDAC4; assay type: biochemical; conditions: substrate KI-177; read-out: HDAC4, IC50, ELISA (KI-177)
# T5 construct: purchased BioMol
# T5 sequence (P56524 whole entry, canonical isoform): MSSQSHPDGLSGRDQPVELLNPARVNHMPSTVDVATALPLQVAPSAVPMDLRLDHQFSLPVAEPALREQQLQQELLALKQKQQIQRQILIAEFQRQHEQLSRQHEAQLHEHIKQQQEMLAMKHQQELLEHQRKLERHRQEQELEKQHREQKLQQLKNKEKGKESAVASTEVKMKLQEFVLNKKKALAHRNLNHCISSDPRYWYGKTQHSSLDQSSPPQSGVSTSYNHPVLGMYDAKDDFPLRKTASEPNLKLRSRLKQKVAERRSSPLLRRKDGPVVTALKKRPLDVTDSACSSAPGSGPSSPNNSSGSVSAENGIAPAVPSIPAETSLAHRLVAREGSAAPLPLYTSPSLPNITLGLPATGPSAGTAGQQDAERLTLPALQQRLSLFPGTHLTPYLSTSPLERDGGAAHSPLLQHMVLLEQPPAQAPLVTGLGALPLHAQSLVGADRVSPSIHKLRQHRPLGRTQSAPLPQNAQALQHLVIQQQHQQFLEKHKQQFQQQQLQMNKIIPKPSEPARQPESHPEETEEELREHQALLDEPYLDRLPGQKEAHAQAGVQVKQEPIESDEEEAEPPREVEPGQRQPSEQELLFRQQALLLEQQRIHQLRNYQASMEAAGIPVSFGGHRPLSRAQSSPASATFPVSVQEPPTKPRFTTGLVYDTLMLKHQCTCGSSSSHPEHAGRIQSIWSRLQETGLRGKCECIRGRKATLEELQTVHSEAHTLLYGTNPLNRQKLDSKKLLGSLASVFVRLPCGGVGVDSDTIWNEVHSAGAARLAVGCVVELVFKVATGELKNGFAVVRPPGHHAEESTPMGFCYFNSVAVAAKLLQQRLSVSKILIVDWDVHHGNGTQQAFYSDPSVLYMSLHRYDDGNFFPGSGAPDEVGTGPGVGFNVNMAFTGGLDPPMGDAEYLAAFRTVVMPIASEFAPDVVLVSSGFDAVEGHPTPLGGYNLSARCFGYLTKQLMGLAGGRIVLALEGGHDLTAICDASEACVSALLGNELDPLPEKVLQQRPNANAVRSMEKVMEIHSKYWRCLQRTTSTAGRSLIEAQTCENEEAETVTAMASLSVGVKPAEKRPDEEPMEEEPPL
# HDAC8 = biological target: T6, HDAC8 (Homo sapiens, UniProt Q9BY41); experiment: HDAC isoform assay, HDAC8
# T6 sequence (Q9BY41 1-377): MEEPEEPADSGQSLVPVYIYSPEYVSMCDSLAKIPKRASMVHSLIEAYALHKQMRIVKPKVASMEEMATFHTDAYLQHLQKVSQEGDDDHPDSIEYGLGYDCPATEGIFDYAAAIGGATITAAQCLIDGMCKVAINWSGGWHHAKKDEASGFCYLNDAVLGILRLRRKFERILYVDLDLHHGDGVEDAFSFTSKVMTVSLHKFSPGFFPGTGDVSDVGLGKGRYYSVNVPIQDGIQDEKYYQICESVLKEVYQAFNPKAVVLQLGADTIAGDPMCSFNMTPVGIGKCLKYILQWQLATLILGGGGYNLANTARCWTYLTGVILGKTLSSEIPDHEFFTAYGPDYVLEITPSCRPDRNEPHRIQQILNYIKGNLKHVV
# T1 sequence (Q13547 whole entry): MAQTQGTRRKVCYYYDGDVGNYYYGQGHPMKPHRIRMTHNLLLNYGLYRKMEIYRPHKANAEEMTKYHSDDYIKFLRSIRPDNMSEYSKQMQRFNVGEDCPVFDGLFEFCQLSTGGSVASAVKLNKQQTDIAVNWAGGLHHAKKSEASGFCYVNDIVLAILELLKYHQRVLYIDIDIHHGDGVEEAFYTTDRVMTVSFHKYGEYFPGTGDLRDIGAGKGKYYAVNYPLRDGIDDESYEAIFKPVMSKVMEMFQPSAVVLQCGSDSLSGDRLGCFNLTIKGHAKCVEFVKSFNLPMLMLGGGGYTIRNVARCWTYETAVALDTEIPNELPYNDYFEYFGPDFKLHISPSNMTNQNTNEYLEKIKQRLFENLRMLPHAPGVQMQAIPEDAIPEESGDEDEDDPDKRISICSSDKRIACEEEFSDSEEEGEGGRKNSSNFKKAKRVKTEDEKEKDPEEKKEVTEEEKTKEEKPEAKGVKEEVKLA
smiles,measurement,setting,value
O=C(CCCCCCCNC(=O)c1cn2c3c(cccc13)CCC2)NO,melting point,,174 to 176 °C
"O=C(CCCCNC(=O)c1cn2c3c(cccc13)CCC2)NO [compound 5, N-[5-(hydroxyamino)-5-oxopentyl]-5,6-dihydro-4H-pyrrolo[3,2,1-ij]quinoline-1-carboxamide]",pIC50,HDAC1,6.23
same,IC50,HCT-116 cells,5.81 µM
same,pIC50,[1],6.09
same,melting point,,179 to 181 °C
"O=C(NO)c1ccc(CNC(=O)c2cn3c4c(cccc24)CCC3)cc1 [compound 6, N-{4-[(hydroxyamino)carbonyl]benzyl}-5,6-dihydro-4H-pyrrolo[3,2,1-ij]quinoline-1-carboxamide]",pIC50,HDAC3,7.58
same,pIC50,HDAC5,7.43
same,pIC50,HDAC6,8.11
same,pIC50,MJ cells,6.24
same,IC50,HCT-116 cells,0.457 µM
same,pIC50,[1],7.15
same,melting point,,191 to 192 °C
same,pIC50,HDAC2,5.52
same,pIC50,HH cells,7.04
"O=C(CCCCCCN(Cc1ccccc1)C(=O)c1cn2c3c(cccc13)CCC2)NO [compound 14, N-benzyl-N-[7-(hydroxyamino)-7-oxoheptyl]-5,6-dihydro-4H-pyrrolo[3,2,1-ij]quinoline-1-carboxamide]",IC50,HCT-116 cells,3.8 µM
same,pIC50,[1],6.11
same,melting point,,71 to 73 °C
"CC(C)(C)OC(=O)N1CCn2cc(C(=O)NCc3ccc(C(=O)NO)cc3)c3cccc(c32)C1 [compound 15, tert-butyl 7-{[4-(hydroxycarbamoyl)benzyl]carbamoyl}-3,4-dihydro[1,4]diazepino[6,7,1-hi]indole-2(1H)-carboxylate]",pIC50,HDAC4,6.10
same,pIC50,HDAC3,6.29
same,pIC50,HDAC1,6.31
same,pIC50,HDAC6,6.69
same,pIC50,HDAC8,5.46
same,pIC50,[1],6.30
same,pIC50,HDAC2,5.00
"O=C(Cc1ccc(NC(=O)c2cn3c4c(cccc24)CCC3)cc1)NO [compound 16, N-{4-[2-(hydroxyamino)-2-oxoethyl]phenyl}-5,6-dihydro-4H-pyrrolo[3,2,1-ij]quinoline-1-carboxamide]",pIC50,[1],5.70
same,melting point,,199 to 202 °C
"CC(=O)CCC1CCN(C(=O)c2cn3c4c(cccc24)CCC3)CC1 [compound 19, 4-[1-(5,6-dihydro-4H-pyrrolo[3,2,1-ij]quinolin-1-ylcarbonyl)piperidin-4-yl]butan-2-one]",pIC50,[1],4.70
"Nc1ccccc1NC(=O)CCCCCCNC(=O)c1cn2c3c(cccc13)CCC2 [compound 20, N-{7-[(2-aminophenyl)amino]-7-oxoheptyl}-5,6-dihydro-4H-pyrrolo[3,2,1-ij]quinoline-1-carboxamide]",pIC50,[1],5.36
same,melting point,,144 to 145 °C
"Nc1cc(Cl)c(Cl)cc1NC(=O)CCCCCCNC(=O)c1cn2c3c(cccc13)CCC2 [compound 21, N-{7-[(2-amino-4,5-dichlorophenyl)amino]-7-oxoheptyl}-5,6-dihydro-4H-pyrrolo[3,2,1-ij]quinoline-1-carboxamide]",pIC50,[1],4.81
same,melting point,,124 to 125 °C
"COc1cccc(-c2cn3cc(C(=O)NCCCCCCC(=O)NO)sc3n2)c1 [compound 22, N-[7-(hydroxyamino)-7-oxoheptyl]-6-(3-methoxyphenyl)imidazo[2,1-b][1,3]thiazole-2-carboxamide]",pIC50,[1],6.31
same,melting point,,209 to 211 °C
"O=C(CCCCCCNC(=O)c1cc2cccc3c2n1CCC3)NO [compound 23, N-[7-(hydroxyamino)-7-oxoheptyl]-5,6-dihydro-4H-pyrrolo[3,2,1-ij]quinoline-2-carboxamide]",pIC50,HDAC4,7.55
same,pIC50,HDAC3,7.43
same,pIC50,HDAC1,7.77
same,pIC50,HDAC6,7.37
same,melting point,,160 to 161 °C
same,pIC50,HDAC2,5.52
